# Data: patent US8466154B2, “Methods and compositions related to wrapping of dehydrons” (The Board of Regents of the University of Texas System, priority 2006, dated 2013)
# Tests used:
# K562 cells = assay: Alamar blue proliferation assay of liposomal WBZ—1 formulations; type: cell-based; conditions: calculated from previous experiments with a similar system
# Procedure: FIG. 12. K562 cells derived from chronic myeloid leukemia (CML) tumors and treated with WBZ—1 liposomal formulation using drug:lipid ratio 1:10. Cells were plated in a 96 well plate at a concentration of 10,000 cells per well and were treated 2 hours later. After 48 hours incubation, an Alamar blue assay was performed. Cells proliferation was expressed as the percentage of proliferating cells compared to the untreated. […] (*) This concentration is the maximum uptake that was calculated based on previous work using a similar system (Tari, 1996). The actual cellular uptake can be considerable lower, even 10^−3 times the effective concentration. The inventors can determine the exact uptake in future experiments using a radiolabeled lipid and prototype compound.
# This modification should lead to a selective inhibition of the Bcr-Abl kinase, and indeed it does. […] In order to determine the best lipid formulation to be used, the inventors tested different WBZ—1:MDPC ratios. […] Cell proliferation inhibition was determined by Alamar blue assay after 48 hours of incubation and calculated as percentage of inhibition comparing with the untreated control. All formulations were nontoxic for the cells and a dose response curve was observed. The effective concentration ranges between 0.1 and 1 μM regardless of the lipid:drug ratio used. […]
# solubility (observation) = type: physicochemical
# C-Kit = target: T1, C-Kit (Homo sapiens, UniProt P10721, K642E); assay: Western blot of C-Kit phosphorylation (Tyr703, Tyr721) in ST882 cells; type: cell-based; conditions: 6 hours, read-out: inhibitory impact on C-Kit phosphorylation in GIST cells
# T1 construct: endogenous in cells; host or cells: ST882 (GIST882) cells
# Procedure: A Western blot assay on treated cancer-derived cell lines (FIGS. 8C and 8D) was performed to determine the in-cell specificity of WBZ—4. […] After allowing the cells to attach for 24 hours, the cells were treated with 1 μM of WBZ—4 or Gleevec for 6 hours. For Western blotting, 50 μg of total protein were separated on a SDS-PAGE (Bio-Rad) and blotted onto nitrocellulose membranes (Bio-Rad Laboratories, Life Science Research, Hercules, Calif.). Antibodies used: anti phospho-c-Kit polyclonal antibody, Tyr703 and Tyr721 (Zymed Laboratories Inc., South San Francisco, Calif.), anti-c-Kit monoclonal antibody (E-1): sc-17806 (Santa Cruz Biotechnology) and anti β-actin monoclonal antibody (Sigma, St. Louis, Mo.). K562 cells were plated at 5×10^5 cells/well. […] Antibodies used: anti phospho-c-Abl (Tyr 412) monoclonal antibody 247C7 (Cell Signalling Technology Inc), anti-Abl monoclonal antibody (Sigma, St. Louis, Mo.).
# JNK1/2 = assay: Western blot of phosphorylated kinases in neonatal rat ventricular myocytes (NRVM); type: cell-based; conditions: 1-50 μM, 24 h, compared to untreated cells
# ERK1/2 = assay: as above; type: cell-based; conditions: 1-50 μM, 24 h, compared to untreated cultures
# Procedure: This protective role of WBZ—4 has also been validated in vivo. Animals used in these studies were handled in accordance with National Institutes of Health “Guide for the Care and Use of Laboratory Animals” [Department of Health and Human Services Publication No. (NIH) 85-23, Revised 1985]. […] NRVM were isolated from the hearts of 2 day-old Sprague-Dawley rat pups via collagenase digestion as previously described (Samarel and Engelmann, 1991). Dissociated cells were pre-plated for 1 hour in serum-free PC-1 medium to selectively remove nonmuscle cells. Myocytes were then plated in PC-1 medium at a density of 1600 cells per mm^2 onto collagen-coated, plastic 35-mm dishes, and left undisturbed in a 5% CO2 incubator for 24 h. Unattached cells were removed by aspiration, and the attached cells were maintained in a solution of DMEM/Medium 199 (4:1) containing antibiotic/antimycotic solution for 24 h. […] NRVM were homogenized in lysis buffer (Schlaepfer and Hunter, 1996). Equal amounts of extracted proteins were separated on 10% SDS-polyacrylamide gels with 5% stacking gels. […] Primary antibody binding was detected with horseradish-peroxidase conjugated goat anti-mouse or goat anti-rabbit secondary antibody, and visualized by enhanced chemiluminescence.
# [1] = test system: brain natriuretic peptide (BNP); assay: RT-PCR of BNP mRNA in left ventricle of treated mice; conditions: GIST model mice after therapy
# Chk1 = target: T2, Chk1 (Homo sapiens, UniProt O14757); assay: kinetic spectrophotometric assay of phosphorylation rate; type: biochemical
# T2 sequence (O14757 1-476): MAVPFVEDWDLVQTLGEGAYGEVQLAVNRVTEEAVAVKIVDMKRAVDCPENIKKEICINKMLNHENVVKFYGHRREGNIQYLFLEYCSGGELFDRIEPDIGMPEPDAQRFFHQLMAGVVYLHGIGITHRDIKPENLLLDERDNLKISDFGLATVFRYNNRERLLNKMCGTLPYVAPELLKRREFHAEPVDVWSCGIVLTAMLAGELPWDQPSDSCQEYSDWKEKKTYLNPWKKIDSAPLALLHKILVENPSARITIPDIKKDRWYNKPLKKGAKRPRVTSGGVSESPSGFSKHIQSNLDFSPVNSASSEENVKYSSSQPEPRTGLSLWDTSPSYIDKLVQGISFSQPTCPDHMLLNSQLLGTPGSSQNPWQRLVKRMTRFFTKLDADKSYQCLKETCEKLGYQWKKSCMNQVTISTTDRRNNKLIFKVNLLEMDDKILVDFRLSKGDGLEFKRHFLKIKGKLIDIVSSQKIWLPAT
# Source text: (§1) To assess the specificity and affinity for Src, the staurosporine derivative is compared with the parental compound. […] Kinetic spectrophotometric assays where performed as indicated above. These assays were geared at measuring the phosphorylation rate of peptide substrates in the presence of the kinase inhibitor at different concentrations.
# PDK1 = target: T3, PDK1 (Homo sapiens, UniProt O15530); assay: as above; type: biochemical
# T3 sequence (O15530 1-556): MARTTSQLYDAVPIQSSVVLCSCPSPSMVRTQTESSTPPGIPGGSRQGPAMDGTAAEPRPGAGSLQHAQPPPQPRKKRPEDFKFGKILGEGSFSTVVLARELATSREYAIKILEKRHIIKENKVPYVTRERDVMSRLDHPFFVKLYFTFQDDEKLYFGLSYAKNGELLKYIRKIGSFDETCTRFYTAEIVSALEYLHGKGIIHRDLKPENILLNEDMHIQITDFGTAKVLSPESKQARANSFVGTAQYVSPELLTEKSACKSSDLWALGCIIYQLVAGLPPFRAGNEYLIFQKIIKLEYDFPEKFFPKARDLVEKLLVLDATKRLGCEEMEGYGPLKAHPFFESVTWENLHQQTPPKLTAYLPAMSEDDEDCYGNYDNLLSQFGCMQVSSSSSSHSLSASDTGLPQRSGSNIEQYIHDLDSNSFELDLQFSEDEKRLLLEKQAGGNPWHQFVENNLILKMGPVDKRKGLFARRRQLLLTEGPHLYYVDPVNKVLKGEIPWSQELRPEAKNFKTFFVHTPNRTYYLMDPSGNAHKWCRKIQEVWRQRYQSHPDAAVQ
# Source text: as §1
# Src kinase = assay: as above; type: biochemical
# Source text: as §1
compound,measurement,setting,value
"Cc1ccc(NC(=O)c2ccc(CN3CCN(C)CC3)cc2)cc1Nc1nccc(-c2cnccc2C)n1 [WBZ—1, N-{5-[4-(4-methylpiperazinemethyl)-benzoylamido]-2-methylphenyl}-4-[3-(4-methyl)-pyridyl]-2-pyrimidine amine]",uptake of WBZ—1 after 48 hours,K562 cells,72 pmol
same,solubility,solubility (observation),insolubility
"Cc1ccc(NC(=O)c2ccc(CN3CCN(C)CC3)cc2)cc1Nc1nccc(-c2cccnc2)n1 [imatinib, reference compound]",inhibition at 1 µM,C-Kit,~85%
same,JNK1/2 activation in cardiomyocytes,JNK1/2,activates JNKs
same,phosphorylation state of ERK1/2 in cardiomyocytes,ERK1/2,increased
same,"BNP mRNA levels in the left ventricle, higher than untreated",[1],about 58%
CN[C@@H]1C[C@H]2O[C@@](C)([C@@H]1OC)n1c3ccccc3c3c4c(c5c6ccccc6n2c5c31)C(=O)N(C)C4 [methylated staurosporine derivative],inhibitory impact against Chk1,Chk1,very low inhibitory impact
same,inhibitory impact against PDK1,PDK1,very low inhibitory impact
same,inhibition of Src compared with staurosporine levels,Src kinase,improved
